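Tested at 5 concentrations; 48 h exposure; 96-well plates; endpoints linearly interpolated, else capped at highest concentration. TGI denotes the concentration required for complete inhibition of growth.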 Bounds are passed on as bounds.

Among the test systems are 786-0 renal; A498 renal; A549 NSCLC; BT-549 breast; CAKI-1 renal; CCRF-CEM leukemia; HS 578T breast; K-562 leukemia; MALME-3M melanoma; MDA-N; MOLT-4 leukemia; NCI-H226 lung; NCI/ADR-RES ovarian; OVCAR-4 ovarian; OVCAR-8 ovarian; RPMI-8226 leukemia; RXF 393 renal; SF-295 CNS; UO-31 renal.
Test in all cases: NCI tumour cell line growth inhibition, 48 h

As to `CCC1(C)C=Cc2c(cc(O)c3c(=O)c4ccccc4n(C)c23)O1` (centres undefined), the TGI with 786-0 renal, in the test with A498 renal, in the test on A549 NSCLC, with BT-549 breast, in the test on CAKI-1 renal and in the test with CCRF-CEM leukemia was above 10 µM each time. In addition, the TGI with HS 578T breast, in the test on K-562 leukemia, with MALME-3M melanoma, in the test on MDA-N, in the test with MOLT-4 leukemia and in the test with NCI-H226 lung was above 10 µM in each case. The TGI with NCI/ADR-RES ovarian, in the test on OVCAR-4 ovarian, in the test on OVCAR-8 ovarian, in the test on RPMI-8226 leukemia, with RXF 393 renal and in the test with SF-295 CNS was above 10 µM each time. In the test on UO-31 renal, this compound yielded a TGI above 10 µM.

For the compound `COc1nc2nccnc2c(=O)n1C`, the TGI in the test with 786-0 renal, in the test on A498 renal, with A549 NSCLC, in the test with BT-549 breast, in the test on CAKI-1 renal and in the test on CCRF-CEM leukemia was above 10 µM throughout. Further, the TGI in the test with HS 578T breast, in the test on K-562 leukemia, in the test with MALME-3M melanoma, in the test with MDA-N, in the test on MOLT-4 leukemia and with NCI-H226 lung was above 10 µM throughout. For the same compound, the TGI in the test on NCI/ADR-RES ovarian, with OVCAR-4 ovarian, in the test with OVCAR-8 ovarian, in the test with RPMI-8226 leukemia, in the test on RXF 393 renal and with SF-295 CNS was above 10 µM in each case. This compound also gave a TGI in the test with UO-31 renal above 10 µM.

As for `N#Cc1c(Cl)cc(Cl)n2c1nc1ccccc12`, the TGI with 786-0 renal is 7.63 µM; in the test on A498 renal, 47.3 µM; with A549 NSCLC, 34.7 µM; in the test on BT-549 breast it was 15.5 µM; in the test with CAKI-1 renal, 7.67 µM; in the test with CCRF-CEM leukemia, above 100 µM. The TGI in the test with HS 578T breast is 32.8 µM; with K-562 leukemia, 11.5 µM; with MALME-3M melanoma, 7.36 µM; with MDA-N, 26.3 µM; in the test on MOLT-4 leukemia it was above 28.8 µM; in the test with NCI-H226 lung, 33.8 µM. The TGI in the test on NCI/ADR-RES ovarian amounted to 40.5 µM; with OVCAR-4 ovarian, 34 µM; in the test with OVCAR-8 ovarian it was 35 µM; with RPMI-8226 leukemia, 58.9 µM; with RXF 393 renal, 26.7 µM; in the test on SF-295 CNS, 32.4 µM. This compound also showed a TGI with UO-31 renal of 13.5 µM.

On to `COc1ccc2cc(C(C)C(=O)N3CCOC3=O)ccc2c1` (centres undefined), for which the TGI in the test with 786-0 renal, in the test with A498 renal, in the test with A549 NSCLC, with BT-549 breast, with CAKI-1 renal and in the test on CCRF-CEM leukemia was above 100 µM throughout. Further, the TGI in the test with HS 578T breast, in the test with K-562 leukemia, with MALME-3M melanoma, in the test on MDA-N, with MOLT-4 leukemia and with NCI-H226 lung was above 100 µM throughout. The TGI in the test with NCI/ADR-RES ovarian, in the test with OVCAR-4 ovarian, in the test on OVCAR-8 ovarian, with RPMI-8226 leukemia, with RXF 393 renal and in the test on SF-295 CNS was above 100 µM throughout. In the test with UO-31 renal, this compound registered a TGI above 100 µM.

Regarding `N#CC1=C(N)N(c2ccccc2)C(c2ccccc2)C1(C#N)C#N` (centres undefined), the TGI in the test with 786-0 renal is 32.6 µM; in the test with A498 renal, 33.6 µM; in the test with A549 NSCLC it was 45.2 µM; in the test on BT-549 breast it was 37 µM; with CAKI-1 renal, above 100 µM; with CCRF-CEM leukemia it was 33.7 µM. Moreover, the TGI in the test with HS 578T breast is above 100 µM; in the test with K-562 leukemia it was 26.5 µM; in the test with MALME-3M melanoma, 35.6 µM; in the test with MDA-N it was 41 µM; with MOLT-4 leukemia, 31.7 µM; in the test with NCI-H226 lung, 36.2 µM. Besides, the TGI was found to be 45.3 µM with NCI/ADR-RES ovarian; 51.1 µM with OVCAR-4 ovarian; 33.5 µM with OVCAR-8 ovarian; 37 µM in the test with RPMI-8226 leukemia; 33.6 µM in the test on RXF 393 renal; 61.1 µM with SF-295 CNS. The same compound came in with a TGI in the test with UO-31 renal of 34.8 µM.

On to `CC(C)(C)OC(=O)NCCCNC1(c2cc3ccccc3s2)CCCCC1`, for which the TGI amounted to 28.8 µM in the test with 786-0 renal; 29.8 µM in the test with A498 renal; 27.2 µM in the test with A549 NSCLC; 27 µM in the test with BT-549 breast; 26.8 µM in the test on CAKI-1 renal; 40.3 µM in the test on CCRF-CEM leukemia. Moreover, the TGI in the test with HS 578T breast was 45.7 µM; in the test on K-562 leukemia, 26.3 µM; in the test on MALME-3M melanoma, 30.9 µM; in the test with MDA-N, 28.8 µM; with MOLT-4 leukemia it was 28.4 µM; in the test with NCI-H226 lung it was 46.1 µM. For the same compound, the TGI was found to be 30.2 µM with NCI/ADR-RES ovarian; 29.5 µM in the test on OVCAR-4 ovarian; 35.1 µM with OVCAR-8 ovarian; 13.7 µM with RPMI-8226 leukemia; 29.8 µM with RXF 393 renal; 28.4 µM in the test with SF-295 CNS. Also, the TGI in the test with UO-31 renal is 25.4 µM.

On to `Nc1nc(Cl)cc(NCC2(CO)CCCC2)n1`, for which the TGI with 786-0 renal, with A498 renal, in the test with A549 NSCLC, in the test with BT-549 breast, in the test with CAKI-1 renal and with CCRF-CEM leukemia was above 100 µM throughout. Further, the TGI in the test with HS 578T breast, in the test with K-562 leukemia, with MALME-3M melanoma, in the test on MDA-N, with MOLT-4 leukemia and with NCI-H226 lung was above 100 µM each time. Besides, the TGI in the test with NCI/ADR-RES ovarian, with OVCAR-4 ovarian, in the test with OVCAR-8 ovarian, with RPMI-8226 leukemia, with RXF 393 renal and in the test on SF-295 CNS was above 100 µM in each case. The compound further showed a TGI in the test on UO-31 renal above 100 µM.

In the case of `COc1cccc(/C=N/n2c(C)n[nH]c2=O)c1`, the TGI in the test on 786-0 renal, in the test with A498 renal, in the test with A549 NSCLC, in the test with BT-549 breast, in the test on CAKI-1 renal and with CCRF-CEM leukemia was above 100 µM each time. Further, the TGI in the test with HS 578T breast is 43.8 µM; with K-562 leukemia, above 100 µM; in the test on MALME-3M melanoma it was above 100 µM; in the test with MDA-N, above 100 µM; in the test with MOLT-4 leukemia, above 100 µM; with NCI-H226 lung it was above 100 µM. Further, the TGI in the test on NCI/ADR-RES ovarian, in the test on OVCAR-4 ovarian, with OVCAR-8 ovarian, with RPMI-8226 leukemia, in the test with RXF 393 renal and with SF-295 CNS was above 100 µM throughout. Besides, in the test on UO-31 renal, the TGI is above 100 µM.

Regarding `C[N+]12CCCCC1C(CN1C(=O)Cc3c4ccccc4c(c4ccccc34)CC1=O)CCC2` (centres undefined), the TGI in the test with 786-0 renal, with A498 renal, with A549 NSCLC, with BT-549 breast, in the test with CAKI-1 renal and in the test on CCRF-CEM leukemia was above 100 µM throughout. For the same compound, the TGI in the test with HS 578T breast, in the test with K-562 leukemia, in the test on MALME-3M melanoma, with MDA-N, in the test with MOLT-4 leukemia and in the test with NCI-H226 lung was above 100 µM each time. The TGI with NCI/ADR-RES ovarian, in the test on OVCAR-4 ovarian, in the test on OVCAR-8 ovarian, in the test on RPMI-8226 leukemia, in the test on RXF 393 renal and in the test on SF-295 CNS was above 100 µM each time. Moreover, in the test with UO-31 renal, the TGI is above 100 µM.

In the case of `C=CCOc1ccc(C2C(C(=O)OCC)C(=O)CC(C)(O)C2C(=O)OCC)cc1OC` (centres undefined), the TGI in the test with 786-0 renal, with A498 renal, in the test with A549 NSCLC, in the test on BT-549 breast, in the test on CAKI-1 renal and in the test on CCRF-CEM leukemia was above 100 µM in each case. Further, the TGI in the test on HS 578T breast, in the test on K-562 leukemia, with MALME-3M melanoma, with MDA-N, in the test with MOLT-4 leukemia and in the test on NCI-H226 lung was above 100 µM in each case. Further, the TGI with NCI/ADR-RES ovarian, in the test on OVCAR-4 ovarian, in the test with OVCAR-8 ovarian, in the test with RPMI-8226 leukemia, in the test on RXF 393 renal and with SF-295 CNS was above 100 µM in each case. This compound also returned a TGI in the test with UO-31 renal above 100 µM.

Take `C#C[C@]1(O)CC[C@H]2[C@@H]3CCC4=C/C(=N/OC(=O)c5cccc6c(=O)c7ccccc7[nH]c56)CC[C@@H]4[C@H]3CC[C@@]21C`: the TGI is above 100 µM in the test on 786-0 renal; above 100 µM in the test on A498 renal; above 100 µM in the test with A549 NSCLC; above 100 µM in the test with BT-549 breast; above 100 µM with CAKI-1 renal; 39.1 µM in the test with CCRF-CEM leukemia. Further, the TGI in the test with HS 578T breast is above 100 µM; with K-562 leukemia it was 59 µM; in the test on MALME-3M melanoma it was above 100 µM; in the test with MDA-N, above 100 µM; with MOLT-4 leukemia it was 38.1 µM; with NCI-H226 lung, above 100 µM. The TGI in the test on NCI/ADR-RES ovarian was above 100 µM; in the test on OVCAR-4 ovarian it was above 100 µM; in the test with OVCAR-8 ovarian, above 100 µM; in the test with RPMI-8226 leukemia, 54 µM; in the test on RXF 393 renal, above 100 µM; with SF-295 CNS it was above 100 µM. Besides, the TGI with UO-31 renal is above 100 µM.

Values taken from PubChem BioAssay (NCI).
